Experimental data as given in paper PMC11952222, “Development and comparison of single FLT3-inhibitors to dual FLT3/TAF1-inhibitors as an anti-leukemic approach” (PLOS One, 2025).

Key:
FLT3(D835V) = molecular target: T1, FLT3(D835V) (Homo sapiens, UniProt P36888, D835V); assay: Eurofins/DiscoverX cell free kinase assay, percent control; format: binding; conditions: for per_control_1000nM FLT3(D835V): 1000 nM compound; for per_control_10000nM FLT3(D835V): 10000 nM compound
T1 construct: purchased Eurofins/DiscoverX
T1 sequence (P36888 27-993 D835V): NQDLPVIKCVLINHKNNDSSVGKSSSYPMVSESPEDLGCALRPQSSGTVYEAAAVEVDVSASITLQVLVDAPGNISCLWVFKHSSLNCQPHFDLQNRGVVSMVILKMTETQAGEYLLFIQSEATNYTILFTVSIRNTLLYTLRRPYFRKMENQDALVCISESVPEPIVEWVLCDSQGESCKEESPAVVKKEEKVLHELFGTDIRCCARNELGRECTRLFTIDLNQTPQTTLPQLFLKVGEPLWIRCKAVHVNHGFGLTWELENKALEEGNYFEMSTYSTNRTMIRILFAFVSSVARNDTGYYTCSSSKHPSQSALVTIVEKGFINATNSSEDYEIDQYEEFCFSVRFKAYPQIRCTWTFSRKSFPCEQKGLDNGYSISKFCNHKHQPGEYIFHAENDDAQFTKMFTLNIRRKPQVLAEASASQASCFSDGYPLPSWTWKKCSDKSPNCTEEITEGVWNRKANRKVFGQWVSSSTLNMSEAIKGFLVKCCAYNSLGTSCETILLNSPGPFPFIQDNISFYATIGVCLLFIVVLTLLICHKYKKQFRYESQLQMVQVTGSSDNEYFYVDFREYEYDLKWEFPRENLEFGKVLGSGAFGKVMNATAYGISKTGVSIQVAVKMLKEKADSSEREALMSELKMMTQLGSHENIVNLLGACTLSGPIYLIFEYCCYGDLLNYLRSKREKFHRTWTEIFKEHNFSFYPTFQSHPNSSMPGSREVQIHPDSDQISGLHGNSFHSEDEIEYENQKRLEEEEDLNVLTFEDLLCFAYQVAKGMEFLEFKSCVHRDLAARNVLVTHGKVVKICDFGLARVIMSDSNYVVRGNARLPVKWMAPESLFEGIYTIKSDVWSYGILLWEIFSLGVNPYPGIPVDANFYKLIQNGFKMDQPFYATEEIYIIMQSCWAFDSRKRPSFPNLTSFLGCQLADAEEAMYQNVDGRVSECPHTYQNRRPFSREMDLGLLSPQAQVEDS
Description: (§1) The 3i-compounds underwent activity testing against a panel of 32 bromodomains using the Eurofins/DiscoverX bromoMAX assay, with specific focus on TAF1(2) bromodomain assessed by the KdELECT assay. In a similar manner, kinase activity was evaluated using a panel of 97 kinase proteins using the Eurofins/DiscoverX scanELECT and KdELECT assays, with specific focus on FLT3 protein. An 11-point 3-fold serial dilution of each test compound was prepared in 100% DMSO at 100x final test concentration and subsequently diluted to final concentration (DMSO 1%). […] Percent control was calculated using the following formula: ((test compound signal – positive control signal)/ (negative control signal – positive control signal)) × 100.
(§2) Fig 2 Results of 3i-compound series at concentrations of 1 µM and 10 µM in a cell free Eurofins/DiscoverX assay for kinase and bromodomain proteins. (A) Single-targeted compounds with tyrosine kinase activity but without bromodomain activity. (B) Dual-targeted compounds with both tyrosine kinase and bromodomain activity.

FLT3_autoinhibited = molecular target: T2, FLT3_autoinhibited (Homo sapiens, UniProt P36888); assay: as above; format: binding; conditions: for per_control_1000nM FLT3_autoinhibited: 1000 nM compound; for per_control_10000nM FLT3_autoinhibited: 10000 nM compound
T2 construct: purchased Eurofins/DiscoverX
T2 sequence (P36888 564-993 limits assumed): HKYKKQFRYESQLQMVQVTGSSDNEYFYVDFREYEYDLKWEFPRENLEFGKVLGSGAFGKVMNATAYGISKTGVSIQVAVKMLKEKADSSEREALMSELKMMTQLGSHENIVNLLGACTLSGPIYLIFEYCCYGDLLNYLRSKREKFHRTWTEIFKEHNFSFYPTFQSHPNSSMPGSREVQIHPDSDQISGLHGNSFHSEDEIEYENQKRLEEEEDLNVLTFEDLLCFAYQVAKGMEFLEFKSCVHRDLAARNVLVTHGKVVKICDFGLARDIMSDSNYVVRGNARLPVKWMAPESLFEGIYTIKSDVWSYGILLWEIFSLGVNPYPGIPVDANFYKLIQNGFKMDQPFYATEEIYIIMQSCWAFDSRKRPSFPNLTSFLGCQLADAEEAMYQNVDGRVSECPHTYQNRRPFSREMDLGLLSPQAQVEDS
Description: as §1, §2

KIT = molecular target: T3, KIT (Homo sapiens, UniProt P10721); assay: as above; format: binding; conditions: for per_control_1000nM KIT: 1000 nM compound; for per_control_10000nM KIT: 10000 nM compound
T3 construct: purchased Eurofins/DiscoverX
T3 sequence (P10721 26-976): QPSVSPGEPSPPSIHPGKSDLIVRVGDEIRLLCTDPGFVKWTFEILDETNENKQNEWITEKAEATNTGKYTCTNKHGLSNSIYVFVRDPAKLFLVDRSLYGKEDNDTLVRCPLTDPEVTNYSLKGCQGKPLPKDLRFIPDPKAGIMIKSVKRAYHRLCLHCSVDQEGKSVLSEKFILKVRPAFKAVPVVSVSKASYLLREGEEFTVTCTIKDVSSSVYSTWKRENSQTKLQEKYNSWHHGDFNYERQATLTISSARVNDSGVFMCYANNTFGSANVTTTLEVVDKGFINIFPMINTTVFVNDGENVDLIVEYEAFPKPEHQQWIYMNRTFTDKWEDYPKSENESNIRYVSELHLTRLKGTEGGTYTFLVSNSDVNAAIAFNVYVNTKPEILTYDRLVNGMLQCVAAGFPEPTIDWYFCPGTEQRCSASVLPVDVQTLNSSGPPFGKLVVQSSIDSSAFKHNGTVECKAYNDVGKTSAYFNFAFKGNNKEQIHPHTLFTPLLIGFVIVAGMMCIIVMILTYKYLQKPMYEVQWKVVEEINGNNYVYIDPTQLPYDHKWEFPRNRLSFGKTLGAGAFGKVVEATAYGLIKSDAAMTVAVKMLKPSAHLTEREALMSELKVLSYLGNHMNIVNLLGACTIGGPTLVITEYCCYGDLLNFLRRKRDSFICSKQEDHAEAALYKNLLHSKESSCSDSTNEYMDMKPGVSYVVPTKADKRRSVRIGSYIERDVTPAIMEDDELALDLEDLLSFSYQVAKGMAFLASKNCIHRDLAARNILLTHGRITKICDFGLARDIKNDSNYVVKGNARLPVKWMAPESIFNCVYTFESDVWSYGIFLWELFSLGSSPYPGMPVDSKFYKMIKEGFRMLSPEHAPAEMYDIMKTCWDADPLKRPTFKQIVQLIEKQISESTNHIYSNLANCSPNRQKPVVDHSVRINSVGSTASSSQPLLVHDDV
Description: as §1, §2

DU4475 cells = assay: Cell toxicity, CellTox Green, DU4475; format: cell-based; conditions: CellTox Green relative to DMSO
Description: (§3) Drug sensitivity and resistance testing in MOLM13, DU4475, HDQP1, and IGROV1 cells was conducted at the Finnish Institute for Molecular Medicine (FIMM), University of Helsinki. In brief, the effects of compounds on cell viability and cell death were quantified with Cell-Titer Glo (Promega) and CellTox Green (Promega), respectively. Compounds or vehicle control were included in cell culture medium at described concentrations for 72h using an automated liquid dispenser in 384-well format. For KASUMI-1 experiments, cells were grown in 96-well plates and similarly incubated with compounds at indicated concentrations for 72h in RPMI + 10% FCS + Gentamicin, followed by lysis and quantification of cell viability with Cell-Titer Glo (Promega).
(§4) Raw values from viability and toxicity assays were normalized to DMSO and plotted to heat maps in R using pheatmap (RRID:SCR_016418). Dose-response curves were generated using the drc package in R [40]. In brief, nonlinear modelling was performed to calculate IC50 values for each compound where possible and resulting curves from drc and experimental values were plotted using ggplot2 (RRID:SCR_014601).

c-KIT = molecular target: T4, c-KIT (Homo sapiens, UniProt P10721); assay: Eurofins/DiscoverX kinase assay, c-KIT IC50; format: binding
T4 construct: purchased Eurofins/DiscoverX
T4 sequence (P10721 26-976): as above
Description: as §1

PDGFRB = molecular target: T5, PDGFRB (Homo sapiens, UniProt P09619); assay: Eurofins/DiscoverX kinase assay, PDGFRB IC50; format: binding
T5 construct: purchased Eurofins/DiscoverX
T5 sequence (P09619 33-1106): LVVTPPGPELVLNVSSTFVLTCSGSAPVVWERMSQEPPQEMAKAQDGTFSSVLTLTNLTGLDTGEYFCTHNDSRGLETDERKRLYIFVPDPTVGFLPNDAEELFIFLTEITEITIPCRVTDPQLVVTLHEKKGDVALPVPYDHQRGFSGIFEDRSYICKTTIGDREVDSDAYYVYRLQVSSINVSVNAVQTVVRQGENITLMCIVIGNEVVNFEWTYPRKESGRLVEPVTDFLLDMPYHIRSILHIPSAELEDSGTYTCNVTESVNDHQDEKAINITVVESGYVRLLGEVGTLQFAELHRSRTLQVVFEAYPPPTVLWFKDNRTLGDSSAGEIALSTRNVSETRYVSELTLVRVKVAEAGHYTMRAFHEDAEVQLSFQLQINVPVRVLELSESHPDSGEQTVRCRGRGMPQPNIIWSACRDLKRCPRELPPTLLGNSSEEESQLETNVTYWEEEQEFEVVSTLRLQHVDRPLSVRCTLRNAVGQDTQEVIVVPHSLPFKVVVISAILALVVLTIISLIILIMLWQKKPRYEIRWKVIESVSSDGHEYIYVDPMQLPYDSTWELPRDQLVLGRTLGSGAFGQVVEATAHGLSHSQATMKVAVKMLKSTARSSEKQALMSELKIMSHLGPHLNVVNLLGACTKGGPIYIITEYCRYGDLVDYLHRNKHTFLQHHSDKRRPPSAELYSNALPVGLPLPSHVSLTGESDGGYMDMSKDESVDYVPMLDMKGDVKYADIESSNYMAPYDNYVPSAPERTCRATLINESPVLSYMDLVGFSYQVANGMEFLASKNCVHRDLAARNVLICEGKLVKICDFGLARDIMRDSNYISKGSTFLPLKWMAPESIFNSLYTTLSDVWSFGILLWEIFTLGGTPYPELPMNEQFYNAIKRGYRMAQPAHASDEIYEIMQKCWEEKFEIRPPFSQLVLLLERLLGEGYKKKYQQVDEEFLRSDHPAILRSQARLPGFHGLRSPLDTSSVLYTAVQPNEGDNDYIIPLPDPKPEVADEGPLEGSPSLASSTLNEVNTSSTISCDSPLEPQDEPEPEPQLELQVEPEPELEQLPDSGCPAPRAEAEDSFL
Description: as §1

KASUMI-1 cells = assay: Cell viability, CellTiter Glo, KASUMI-1; format: cell-based; conditions: compared to dual FLT3/TAF1(2) compounds 3i-1103, 3i-1246, 3i-1248
Description: as §3, §4

Row | Compound | per_control_1000nM FLT3(D835V) (FLT3(D835V)) [percent control] | per_control_10000nM FLT3(D835V) (FLT3(D835V)) [percent control] | per_control_1000nM FLT3_autoinhibited (FLT3_autoinhibited) [percent control] | per_control_10000nM FLT3_autoinhibited (FLT3_autoinhibited) [percent control] | per_control_1000nM KIT (KIT) [percent control] | per_control_10000nM KIT (KIT) [percent control] | CTX normalized_to_DMSO (DU4475 cells; DU4475, exp 1, 0.3 µM) | CTX normalized_to_DMSO (DU4475 cells; DU4475, exp 1, 1 µM) | CTX normalized_to_DMSO (DU4475 cells; DU4475, exp 1, 3 µM) | CTX normalized_to_DMSO (DU4475 cells; DU4475, exp 1, 10 µM) | CTX normalized_to_DMSO (DU4475 cells; DU4475, exp 1, 30 µM) | IC50 (c-KIT) [nM] | IC50 (PDGFRB) [nM] | anti-proliferative activity in KASUMI-1 cells (KASUMI-1 cells)
1 | COc1ccc(-c2cc(NC(=O)c3ccc(C(C)(C)C)cc3)[nH]n2)cc1 [Compound 3i-1103] | 0.9 | 0 | 1.8 | 0.4 | 0 | 0 | 1.007 | 0.9954 | 0.9628 | 0.9392 | 0.7319 |  |  | 
2 | Cc1cc(-c2cc(NC(=O)c3ccc(C(C)(C)C)cc3)[nH]n2)ccn1 [Compound 3i-1246, 4-(tert-butyl)-N-(3-(2-methylpyridin-4-yl)-1H-pyrazol-5-yl)benzamide] | 0.5 | 0.55 | 0 | 1 | 0 | 0 |  |  |  |  |  |  |  | 
3 | CC(C)(C)c1ccc(C(=O)Nc2cc(-c3ccccc3)n[nH]2)cc1 [Compound 3i-1247, 4-(tert-butyl)-N-(3-phenyl-1H-pyrazol-5-yl)benzamide] | 2.5 | 0 | 1.1 | 0 | 0 | 0 |  |  |  |  |  | 8.5 | 3.4 | superior anti-proliferative activity
4 | Cn1cc(-c2cc(NC(=O)c3ccc(C(C)(C)C)cc3)n[nH]2)ccc1=O [Compound 3i-1248, 4-(tert-butyl)-N-(5-(1-methyl-6-oxo-1,6-dihydropyridin-3-yl)-1H-pyrazol-3-yl)benzamide] | 1.3 | 0.7 | 63 | 12 | 8.2 | 0.1 |  |  |  |  |  |  |  | 
